# Experimental data taken from patent US9056899B2 (priority 2008, dated 2015).
# Like-named read-outs stand apart in the source and are kept apart here.
# What was measured:
# [1] = tested on: BW25113 and gene knockouts; conditions: cited from earlier work
# [2] = tested on: BW25113 gene knockouts; conditions: cited from earlier work
# [3] = tested on: BW25113 and gene knockouts; conditions: cited from earlier work; remark: listed apart in the source
# [4] = tested on: BW25113 and gene knockouts; conditions: cited from earlier work; remark: listed apart in the source
# [5] = tested on: E. coli EMG2; assay: Ofloxacin killing assay; format: cell-based; conditions: 60 ng/mL ofloxacin, no phage, 6 hours of treatment
# Method: Determination of colony forming units. To obtain CFU counts, 150 μL of relevant cultures were collected, washed with 1× phosphate-buffered saline (PBS), recollected, and resuspended in 150 μL of 1×PBS. Serial dilutions were performed with 1×PBS and sampled on LB agar plates. LB agar plates were incubated at 37° C. overnight before counting.
# Ofloxacin killing assay. To determine the adjuvant effect of engineered phage (FIG. 1B, FIG. 3A and FIG. 3D), the inventors grew 1:500 dilutions of overnight EMG2 cells for 3 hours and 30 minutes at 37° C. and 300 rpm to late-exponential phase and determined initial CFUs. Then, the inventors added 60 ng/mL ofloxacin by itself or in combination with 10^8 PFU/mL bacteriophage (unmodified φunmod or engineered φLexA, φSoxR, φcsr, φompF, or φCsr-ompF phage) and treated at 37° C. and 300 rpm. At indicated time points, the inventors determined CFUs as described above. Mean killing (Δlog10 (CFU/mL)) was determined by subtracting mean initial log10 (CFU/mL) from mean log10 (CFU/mL) after treatment in order to compare data from different experiments. This protocol was replicated with E. coli RFS289 to determine the ofloxacin-enhancing effect of engineered φlexA3 phage against antibiotic-resistant bacteria (FIG. 2). […]
# [6] = tested on: E. coli EMG2; assay: Antibiotic resistance assay; format: cell-based; conditions: 30 ng/mL ofloxacin 24 hours; phage (10^9 PFU/mL) added for the last 12 hours where named
# Method: Antibiotic resistance assay. To analyze the effect of subinhibitory concentrations of ofloxacin on the development of antibiotic-resistant mutants, the inventors grew 1:10^8 dilutions of overnight EMG2 in LB media containing either no ofloxacin (FIG. 4) or 30 ng/mL ofloxacin (FIG. 7). After 12 hours of growth at 37° C. and 300 rpm, the inventors split the cells grown in no ofloxacin into 100 uL aliquots with no ofloxacin in 60 wells in 96-well plate format (Costar 3370; Fisher Scientific, Pittsburgh, Pa.). The inventors also split the cells grown in 30 ng/mL ofloxacin into 100 uL aliquots in 60 wells with either no phage and 30 ng/mL ofloxacin (FIG. 7B), φunmod phage and 30 ng/mL ofloxacin (FIG. 7C), and φlexA3 and 30 ng/mL ofloxacin (FIG. 7D) in 96-well plate format. The inventors placed the 96-well plates in 37° C. and 300 rpm with plastic bags to minimize evaporation. After 12 hours of treatment, the inventors plated cultures from each well on LB agar+100 ng/mL ofloxacin to select for mutants that developed resistance against ofloxacin. To compare results, the inventors plotted histograms of the number of resistant bacteria found in each well in FIGS. 4 and 8.
# [7] = tested on: E. coli EMG2; assay: Survival of mice infected with bacteria; format: in vivo; conditions: 8.8×10^7 CFU/mouse i.p.; 1 hour later i.v. 0.2 mg/kg ofloxacin with or without 10^9 PFU/mouse phage; observed 5 days
# Method: After 1 hour, the mice received either no treatment or intravenous treatment with no phage, unmodified phage φunmod, or engineered phage φlexA3 with 0.2 mg/kg ofloxacin. 10^9 PFU/mouse phage was used.
# Increasing Survival of Mice Infected with Bacteria. To determine the clinical relevance of antibiotic-enhancing phage in vivo, the inventors applied the engineered phage φlexA3 with ofloxacin to prevent death in mice infected with bacteria. Mice were injected with E. coli EMG2 intraperitoneally 1 hour prior to receiving different intravenous treatments (FIG. 3A). Eighty percent of mice that received φlexA3 with ofloxacin survived, compared with 50% and 20% for mice that received φunmod plus ofloxacin or ofloxacin alone, respectively (FIG. 3B).
# [8] = tested on: E. coli EMG2; assay: Minimum inhibitory concentration of ofloxacin; format: cell-based; conditions: Escherichia coli, data not shown
structure (smiles),measurement,setting,value
CN[C@H](CC(C)C)C(=O)N[C@H]1C(=O)N[C@@H](CC(N)=O)C(=O)N[C@H]2C(=O)N[C@H]3C(=O)N[C@H](C(=O)N[C@H](C(=O)O)c4cc(O)cc(O)c4-c4cc3ccc4O)[C@H](O)c3ccc(c(Cl)c3)Oc3cc2cc(c3O[C@@H]2O[C@H](CO)[C@@H](O)[C@H](O)[C@H]2O[C@H]2C[C@](C)(N)[C@H](O)[C@H](C)O2)Oc2ccc(cc2Cl)[C@H]1O [Vancomycin],MIC Plating,[1]; BW25113 starting strain,500 µg/mL
same,MIC Plating,[1]; dksA knockout,125 µg/mL
same,MIC Plating,[1]; elaD knockout,150 µg/mL
same,MIC Plating,[1]; envC knockout,150 µg/mL
same,MIC Plating,[1]; envZ knockout,150 µg/mL
same,MIC Plating,[1]; fepC knockout,150 µg/mL
same,MIC Plating,[1]; hns knockout,150 µg/mL
same,MIC Plating,[1]; hscB knockout,150 µg/mL
same,MIC Plating,[1]; lptB knockout,150 µg/mL
same,MIC Plating,[1]; msbB knockout,150 µg/mL
same,MIC Plating,[1]; oxyR knockout,150 µg/mL
same,MIC Plating,[1]; pal knockout,100 µg/mL
same,MIC Plating,[1]; pgmB knockout,100 µg/mL
same,MIC Plating,[1]; proW knockout,150 µg/mL
same,MIC Plating,[1]; rimK knockout,150 µg/mL
same,MIC Plating,[1]; rpmJ knockout,150 µg/mL
same,MIC Plating,[1]; rrmJ knockout,150 µg/mL
same,MIC Plating,[1]; skp knockout,75 µg/mL
same,MIC Plating,[1]; smpA knockout,100 µg/mL
same,MIC Plating,[1]; surA knockout,8 µg/mL
same,MIC Plating,[1]; tonB knockout,125 µg/mL
same,MIC Plating,[1]; tusC knockout,150 µg/mL
same,MIC Plating,[1]; tusD knockout,150 µg/mL
same,MIC Plating,[1]; xapR knockout,100 µg/mL
same,MIC Plating,[1]; ybgF knockout,100 µg/mL
same,MIC Plating,[1]; ycbR knockout,150 µg/mL
same,MIC Plating,[1]; yciM knockout,100 µg/mL
same,MIC Plating,[1]; ydfP knockout,150 µg/mL
same,MIC Plating,[1]; ydjI knockout,100 µg/mL
same,MIC Plating,[1]; yfgC knockout,150 µg/mL
same,MIC Plating,[1]; yfgL knockout,150 µg/mL
same,MIC Plating,[1]; yhdP knockout,125 µg/mL
same,MIC E test,[2]; lptB knockout,2.0 µg/mL
same,MIC E test,[2]; pal knockout,96 µg/mL
same,MIC E test,[2]; smpA knockout,70 µg/mL
same,MIC E test,[2]; surA knockout,4 µg/mL
CC1(C)S[C@@H]2[C@H](NC(=O)[C@H](N)c3ccccc3)C(=O)N2[C@H]1C(=O)O [Ampicillin],MIC E test,[3]; BW25113 starting strain,5.0 µg/mL
same,MIC E test,[3],1.5 µg/mL
same,MIC E test,[3]; dacA knockout,1.5 µg/mL
same,MIC E test,[3]; dapF knockout,2.0 µg/mL
same,MIC E test,[3]; pal knockout,2.0 µg/mL
same,MIC E test,[3]; rplA knockout,2.0 µg/mL
same,MIC E test,[3]; tatC knockout,3.0 µg/mL
same,MIC E test,[3]; tolC knockout,1.0 µg/mL
same,MIC Plating,[4]; BW25113 starting strain,6.0 µg/mL
same,MIC Plating,[4]; JW5115 knockout,2.0 µg/mL
same,MIC Plating,[4]; acrA knockout,1.5 µg/mL
same,MIC Plating,[4]; acrB knockout,2.0 µg/mL
same,MIC Plating,[4]; atpA knockout,2.5 µg/mL
same,MIC Plating,[4],1.5 µg/mL
same,MIC Plating,[4]; dacA knockout,1.5 µg/mL
same,MIC Plating,[4]; dapF knockout,1.0 µg/mL
same,MIC Plating,[4]; dcd knockout,2.5 µg/mL
same,MIC Plating,[4]; ddlB knockout,1.0 µg/mL
same,MIC Plating,[4]; dedD knockout,2.0 µg/mL
same,MIC Plating,[4]; deoT knockout,2.0 µg/mL
same,MIC Plating,[4]; dksA knockout,2.0 µg/mL
same,MIC Plating,[4]; emtA knockout,2.0 µg/mL
same,MIC Plating,[4]; envC knockout,1.5 µg/mL
same,MIC Plating,[4]; fkpB knockout,2.5 µg/mL
same,MIC Plating,[4]; gpmM knockout,1.5 µg/mL
same,MIC Plating,[4]; hscA knockout,2.0 µg/mL
same,MIC Plating,[4]; hscB knockout,2.5 µg/mL
same,MIC Plating,[4]; lptB knockout,2.0 µg/mL
same,MIC Plating,[4]; mrcB knockout,2.0 µg/mL
same,MIC Plating,[4]; pal knockout,1.5 µg/mL
same,MIC Plating,[4]; pgmB knockout,1.5 µg/mL
same,MIC Plating,[4]; phoP knockout,2.0 µg/mL
same,MIC Plating,[4]; qmcA knockout,2.5 µg/mL
same,MIC Plating,[4]; rimK knockout,2.0 µg/mL
same,MIC Plating,[4]; rplA knockout,2.0 µg/mL
same,MIC Plating,[4]; rpmF knockout,1.5 µg/mL
same,MIC Plating,[4]; rpsF knockout,2.0 µg/mL
same,MIC Plating,[4]; rrmJ knockout,1.5 µg/mL
same,MIC Plating,[4]; skp knockout,2.0 µg/mL
same,MIC Plating,[4]; sufI knockout,2.0 µg/mL
same,MIC Plating,[4]; surA knockout,2.0 µg/mL
same,MIC Plating,[4]; tatC knockout,2.0 µg/mL
same,MIC Plating,[4]; tolC knockout,2.0 µg/mL
same,MIC Plating,[4]; tolR knockout,2.0 µg/mL
same,MIC Plating,[4]; ubiG knockout,2.0 µg/mL
same,MIC Plating,[4]; xapR knockout,1.5 µg/mL
same,MIC Plating,[4]; ybeD knockout,2.0 µg/mL
same,MIC Plating,[4]; ybeY knockout,2.0 µg/mL
same,MIC Plating,[4]; ybgF knockout,1.5 µg/mL
same,MIC Plating,[4]; ybhT knockout,2.0 µg/mL
same,MIC Plating,[4]; yciM knockout,1.5 µg/mL
same,MIC Plating,[4]; yfgC knockout,1.5 µg/mL
same,MIC Plating,[4]; yfgL knockout,2.0 µg/mL
same,MIC Plating,[4]; ygcO knockout,2.0 µg/mL
same,MIC Plating,[4]; yjjY knockout,1.5 µg/mL
CC1COc2c(N3CCN(C)CC3)c(F)cc3c(=O)c(C(=O)O)cn1c23 (centres unmarked) [ofloxacin],reduction of bacteria exposed only to ofloxacin,[5],about 1.7 log10 (CFU/mL)
same,number of mutants resistant to 100 ng/mL ofloxacin (median of 60 samples),[6],1592
same,mice that survived,[7],20%
same,MIC,[8],0.06 µg/mL
